Values quoted from earlier work in patent publication US9061040B2, “Combination therapy for breast cancer” (priority 2011, dated 2015).

Experiments:
[1] = 180-300 mg/day over 10 years
liver cancer = settings: 45 mg daily for two years, women with viral liver cirrhosis
advanced prostate cancer = settings: supplemental intake greater than 400 IU/day; current smokers or quit within the past 10 years
prostate cancer = settings: male smokers

CC1=C(/C=C/C(C)=C/C=C/C(C)=C/C=C/C=C(C)/C=C/C=C(C)/C=C/C2=C(C)CCCC2(C)C)C(C)(C)CCC1 [β-carotene]
toxicity [1]: did not show any toxicity

menaquinone [vitamin K2 (menaquinone)]
less likely to develop liver cancer (liver cancer): ~90%

vitamin E
reduction in risk of advanced prostate cancer (advanced prostate cancer): 71% | reduction of prostate cancer cases (prostate cancer; 50 mg daily versus no vitamin E): one-third reduction | new cases of prostate cancer among participants who received vitamin E (prostate cancer; 50 mg daily, 5 to 8-year intervention, 147 cases without vitamin E, 246 in total): 99 cases
